Experimental data from the OPERA property sets (Mansouri et al. 2018).

Settings: not given

SMILES | melting point [°C] | boiling point [°C] | log10 vapour pressure (mmHg) | ready biodegradability | log10 Henry constant (atm·m³/mol) | log10 Koc (L/kg) | log10 Koa
CCOC(=O)c1ncn2c1CN(C)C(=O)c1cc(F)ccc1-2 | 202 | – | – | – | – | – | –
c1ccc(O[Si](Oc2ccccc2)(Oc2ccccc2)Oc2ccccc2)cc1 | 49 | 417 | – | – | – | – | –
c1ccc(-c2ccc(-c3ccccc3)cc2)cc1 | 210 | 376 | -7 | not readily biodegradable | – | – | –
Cc1cccc(C)c1O | 45.7 | 201 | -0.767 | not readily biodegradable | -5.18 | – | –
CC(C)OC(=O)C(C)C | – | 121 | 1.2 | – | – | – | –
CCC(=O)O[C@H]1CC[C@H]2[C@@H]3CCC4=CC(=O)CC[C@]4(C)[C@H]3CC[C@]12C | 120 | – | – | – | – | – | –
C=CCSC | – | 92 | – | – | – | – | –
CC1CC(C)NC(C)(C)C1 (stereo unspecified) | – | 156 | – | – | – | – | –
OCCCCO | 20.4 | 235 | -1.98 | readily biodegradable | – | – | –
COC(=O)CCCCC(=O)O | 9 | – | – | – | – | – | –
CCCCOCCOC(=O)CCCOc1ccc(Cl)cc1Cl | – | – | – | – | – | 2.7 | –
OC(Cn1cncn1)(c1ccc(F)cc1)c1ccccc1F (stereo unspecified) | 130 | – | -10.3 | – | – | 1.88 | –
CCC(C)C#N (stereo unspecified) | – | 125 | – | – | – | – | –
NC(=O)C1(N2C(=O)c3cccc(Cl)c3C2=O)CCCCC1 | 194 | – | – | – | – | – | –
CCOC(=O)CCCCCBr | 33 | – | – | – | – | – | –
OC[C@H]1O[C@H](O)[C@H](O)[C@@H](O)[C@@H]1O | – | – | -13.1 | – | – | – | –
NC(=O)Nc1cccc(F)c1 | – | – | – | – | – | 1.77 | –
CCCCOB(OCCCC)OCCCC | – | 234 | -0.279 | – | – | – | –
C[C@H](N)CCc1ccccc1 | 143 | 223 | – | – | – | – | –

SMILES | melting point [°C] | boiling point [°C] | log10 vapour pressure (mmHg) | ready biodegradability | log10 Henry constant (atm·m³/mol) | log10 Koc (L/kg) | log10 Koa
Clc1cc2c(oc3c(Cl)c(Cl)c(Cl)cc32)c(Cl)c1Cl | 240 | – | – | – | – | – | 10.9
C=CCc1ccc(OC)c(OC)c1 | – | 263 | -1.92 | readily biodegradable | – | – | –
C/C=C(/C)CCC | -118 | 95.6 | – | – | – | – | –
N#Cc1cnc2ccccc2c1 | 109 | – | – | – | – | – | –
O=C(O)CONC(=O)c1ccccc1 | 140 | – | – | – | – | – | –
O=C(O)CCC(=O)c1ccccc1 | 118 | – | – | – | – | – | –
CCOC(=O)CO | – | 160 | – | – | – | – | –
N#Cc1cc(F)c(F)c(F)c1F | – | 164 | – | – | – | – | –
Cc1ccccc1C#N | -13.5 | 205 | -0.348 | – | – | – | –
Clc1ccc(-c2c(Cl)ccc(Cl)c2Cl)cc1Cl | – | – | – | – | – | – | 9.06
O=c1cccc2n1CC1CNCC2C1 (stereo unspecified) | 152 | – | – | – | – | – | –
CC=CC(C)C(=O)O (stereo unspecified) | – | 199 | – | – | – | – | –
O=C(O)c1cccnc1 | 237 | – | – | readily biodegradable | – | – | –
CC(C)(C)ON=O | – | 63 | – | – | – | – | –
N#Cc1ccccc1O | 98 | – | – | – | – | – | –
CC(C)CCC[C@@H](C)[C@H]1CC[C@@H]2[C@@H]3CC[C@H]4CCCC[C@]4(C)[C@H]3CC[C@@]21C | 76 | – | – | – | – | – | –
Oc1ccc(Cl)cc1Cl | 45 | 210 | -1.05 | not readily biodegradable | – | 2.81 | –
O=C(O)c1c(Cl)ccc2cc(Cl)cnc12 | 274 | – | – | – | – | – | –
CC(=O)OCC(=O)c1ccccc1 | 49 | 270 | – | – | – | – | –

SMILES | melting point [°C] | boiling point [°C] | log10 vapour pressure (mmHg) | ready biodegradability | log10 Henry constant (atm·m³/mol) | log10 Koc (L/kg) | log10 Koa
Nc1c(F)c(F)c(C(F)(F)F)c(F)c1F | – | 186 | – | – | – | – | –
ClCCCCCCCl | – | 204 | – | – | – | – | –
Cc1cc(C)c(C)c(O)c1C | 118 | 247 | – | – | – | – | –
O=C(O)CSCc1ccccc1 | 61 | – | – | – | – | – | –
N#CNC(=N)N | 211 | – | – | not readily biodegradable | – | – | –
CCn1c2ccccc2c2cc(N)ccc21 | 99 | – | – | – | – | – | –
COc1cc(C(=O)O)cc(OC)c1O | 208 | – | – | readily biodegradable | – | – | –
Cc1cnccn1 | -29 | 137 | 0.906 | – | -5.66 | – | –
Clc1cc2c(Cl)cccc2c(Cl)c1Cl | 141 | – | -4.96 | – | – | – | 8.29
OC(CNc1ccccn1)c1ccccc1 (stereo unspecified) | 83.5 | – | – | – | – | – | –
O=Cc1ccccc1C=O | 56.5 | – | – | – | – | – | –
COP(=O)(OC)OC(=CCl)c1cc(Cl)c(Cl)cc1Cl | 96.3 | – | -7.38 | not readily biodegradable | – | 3.01 | –
CCN1C(=O)c2ccccc2C1=O | 79 | 286 | – | – | – | – | –
O=C1C(=Cc2ccccc2)CCCC1=Cc1ccccc1 | 118 | – | – | – | – | – | –
CC(=O)c1c(O)c(C)c(O)c2c1OC1=CC(=O)C(C(C)=O)C(=O)C12C (stereo unspecified) | 204 | – | – | – | – | – | –
N#C[S-].[NH4+] | 150 | – | – | – | – | – | –
N=CNO | 114 | – | – | – | – | – | –
O=C1C2(Cl)C3(Cl)C4(Cl)C(Cl)(Cl)C5(Cl)C3(Cl)C1(Cl)C5(Cl)C24Cl (stereo unspecified) | – | – | -6.65 | – | – | 4.2 | –
N#CCCNCCC#N | – | – | – | not readily biodegradable | – | – | –

Same assay, conditions: fish

SMILES | log10 BCF | log10 biotransformation half-life (days)
Nc1ccccc1 | 0.21 | -0.78
S=C(SSSSC(=S)N1CCCCC1)N1CCCCC1 | 1.23 | –
Clc1ccc(C(c2ccc(Cl)cc2)C(Cl)(Cl)Cl)cc1 | 4.29 | 1.93
CCc1cc(C(C)(C)C)c(O)c(C(C)(C)C)c1 | 3.46 | 0.86
Clc1cc2c(oc3c(Cl)c(Cl)c(Cl)cc32)c(Cl)c1Cl | 3.98 | 1.12
Clc1ccc(-c2c(Cl)ccc(Cl)c2Cl)cc1Cl | – | 2.63
Oc1ccc(Cl)cc1Cl | 1.53 | -0.94
N#CNC(=N)N | 0.49 | –
COP(=O)(OC)OC(=CCl)c1cc(Cl)c(Cl)cc1Cl | 1.61 | -1.02
CC(=CC(C)(C)C)CC(C)(C)C | – | 0.7
O=C1C2(Cl)C3(Cl)C4(Cl)C(Cl)(Cl)C5(Cl)C3(Cl)C1(Cl)C5(Cl)C24Cl (stereo unspecified) | 3.19 | –
N#CCCNCCC#N | 0.08 | –
